Data as given in patent US5436243A, “Aminoanthraquinone derivatives to combat multidrug resistance” (priority 1993, dated 1995).
“Also recorded” adds a separate entry of the source.

Columns and labels:
[1] = system: A704 human renal cell line; assay: Vinblastine accumulation assay, A704; assay type: cell-based; details: 10 μM, 10 nM [3H] vinblastine
Protocol: These cell lines are models of intrinsic resistance.
(§1) [^3 H] vinblastine was added to a final concentration of 10 nM and the cells were incubated for 2.5 hours. At this time, the cells were washed 3 times in ice cold PBS and lysed in buffer containing 0.1% Triton X-100.

[2] = system: granulocyte-macrophage progenitors (CFU-GM); assay: cells
Protocol: (§2) Myelosuppression is often a dose limiting side effect of chemotherapeutic agents. […] The toxicities to human granulocyte-macrophage progenitors (CFU-GM) of 1b, 1c, and VLB was assessed by measuring inhibition of CFU-GM proliferation in cultures continuously exposed to each agent alone and compared to the toxicities to sensitive and resistant MCF7 in tumor cell clonogenic assays.
(§3) METHOD: The CFLI-GM assay measures clonal proliferation of granulocyte/macrophage precursors in semisolid agar cultures. The progeny of the granulocyte/macrophage precursors remain in proximity of the progenitor cells and form colonies. Colonies which contain greater than 40 cells after 10-12 days of culture are counted using an inverted phase contrast microscope. The tumor cell clonogenic assays measure clonal proliferation of tumor cells. In this assay, 300-500 cells are plated in 10 cm^2 wells, allowed to adhere overnight, and are treated the following day. Tumor cell colonies were counted after 10-12 days of culture. The times of exposure in these experiments are similar; however, the concentrations of FCS are 20% in the CFU-GM assay and 10% in the tumor cell clonogenic assays. The IC50's are calculated as described above for the MTT proliferation assays. (See Example 4).
(§4) To facilitate this comparison, a CFLI-GM toxicity index was calculated by dividing the CFU-GM IC50 by the respective tumor cell clonogenic IC50's in sensitive and resistant cells.

in vitro = details: human
Protocol: as §2, §3, §4

MARCKS protein = assay: Phosphorylation of MARCKS in intact MCF7 Adr 10 cells; assay type: cell-based, human; details: MCF7 Adr 10, representative time course experiment, FIG. 12
Description: The effects of compound 1c on phosphorylation of the P-glycoprotein and the MARCKS protein (myristoylated alanine-rich C kinase substrate) was studied in intact cells labeled with [^32 P] orthophosphate. The MARCKS protein (also known as the 80 to 87 kD protein) is observed to be rapidly phosphorylated subsequent to PKC activation by phorbol esters, cell permeant diacylglycerols, growth factor and hormonal stimulation in a variety of cell types from several species. […] In these experiments, phosphorylation of MARCKS was used as a marker of cellular PKC activity. The effects of 1c on phosphorylation states of the P-glycoprotein and MARCKS protein were studied to test the possibility that this compound may be inhibiting PKC in cells; due to metabolism to an active PKC inhibitor or by achieving inhibitory concentrations in the microenvironment of the P-glycoprotein.
METHOD: A monoclonal antibody to the P-glycoprotein, C219, was used to immunoprecipitate the P-glycoprotein and a polyclonal rabbit antibody was used to immunoprecipitate the MARCKS protein from extracts of cells labeled with [^32 P]. MARCKS was immunoprecipitated after preclearing the aliquot with normal rabbit IgG. MCF7 Adr 10 cells were labeled with [^32 P] orthophosphate for two hours. […] P-glycoprotein and MARCKS were immunoprecipitated from aliquots of the same sample containing equivalent radioactivity.

[3] = system: MCF7 Adr 10 human breast cancer cells; assay: Vinblastine accumulation assay, MCF7 Adr 10; assay type: cell-based
Protocol: as §1, with “vinblastine ([^3 H] VLB)” for “vinblastine”, “100” for “10”, “X-100. Net accumulation of [^3 H] vinblastine was expressed as pmol/mg protein. In [^3 H]” for “X-100.”

PKC = assay: Micellar PKC screening assay; assay type: biochemical
Description: The N-substituted diaminoanthraquinone, 1b, (1,4-bis-[[3'-(diethylamino)propyl]amino]anthraquinone), was identified as a PKC inhibitor in the micellar PKC screening assay and in platelets. […] Spectrophotometric analysis of 1b and lc indicated they were excellent chromophores with absorbance maxima at 648 and 600 nm in chloroform, respectively, and extinction coefficients of approximately 20,000. At these wavelengths, there was minimal absorbance by cellular components contained in the chloroform phase. These properties of 1b and 1c were utilized to determine the time course of accumulation of these compounds in MDR MCF7 Adr 10 cells.
The activities of 1a, 1b, 1c and 1d and mitoxantrone, an anthraquinone antineoplastic drug, were evaluated in vinblastine drug accumulation assays performed by the following method. […] Mitoxantrone was identified as a PKC inhibitor in miceliar PKC assays. Compound 1d (1,4-bis-[[2-(4-morpholino)ethyl]amino]anthraquinone) was only evaluated in cellular studies.

other phosphoproteins = assay: Overall phosphoprotein changes in cell extracts; assay type: cell-based
Description: One possible explanation for stimulation of phosphorylation of P-glycoprotein and MARCKS is that 1c may activate PKC or other cellular kinases by signal transduction pathways that have not yet been identified to phosphorylate these proteins. An alternative explanation for stimulation of phosphorylation of P-glycoprotein and MARCKS is that 1c inhibits protein phosphatases.

[4] = system: MCF7 Adr 10 human breast cancer cells; assay: Time course of accumulation of anthraquinones in cells; assay type: cell-based; details: 25 μM, 37° C., MCF7 Adr 10 cells
Protocol: METHOD: Near confluent monolayers of MCF7 ADR 10 were washed 2 times with Dulbecco's Phosphate Buffered Saline (DPBS) and 1 ml of Iscove's Modified Dulbecco's Medium (IMDM) was added to each well. The monolayers were treated with 25 μM 1b or 1c and incubated at 37° C. After incubating the samples for the times indicated in FIG. 1, the monolayers were washed three times with DPBS and detached using 1 ml of Trypsin-EDTA.An aliquot of the cell suspension was counted using a Coulter Counter and a 0.8 ml aliquot was extracted in a Bligh-Dyer extraction (Bligh et at., Can. J. Biochem. 31:911-916 (1959)). The absorbance of the lower chloroform phase was measured at 648 nm and 600 nm using a spectrophotometer. The amount of 1b or 1c present in the extract was quantitated from a standard curve performed in cell extracts. The data is expressed as nmol anthraquinone/10^6 cells.

O=C1c2ccccc2C(=O)c2c(NCCCN3CCOCC3)ccc(NCCCN3CCOCC3)c21 [Compound 1c, 1,4-bis-[[3'(4-morpholino)propyl]amino]anthraquinone]
vinblastine accumulation relative to verapamil [1]: comparable or superior to verapamil activity | IC50 ([2]; Homo sapiens, CFU-GM, read-out: Continuous Exposure IC50, CFU-GM): 7.8 µM | CFU-GM Toxicity Index (CFU-GM IC50 / Tumor Cell Clonogenic IC50) ([2]; human): 19.5 | selectivity ratio (in vitro; CFU-GM Toxicity Index (CFU-GM IC50 / Tumor Cell Clonogenic IC50)): 9.8 | selectivity ratio (in vitro; cfu-gm vs mcf7, lower sensitivity of CFU-GM than drug sensitive (WT) and MDR cancer cell lines): 10 to 20 | increase of MARCKS phosphorylation (MARCKS protein): 3 fold | minimal effective concentration ([3]; Homo sapiens, NCI/ADR-RES, 100 nM [3H] VLB, 2.5 hours, FIGS. 2 and 3, read-out: lowest concentration which causes a doubling of basal accumulation of vinblastine): 0.5 µM | activity in vinblastine accumulation assay / drug accumulation ([3]; MDR MCF7): greater activity than 1b; also recorded: greatest activity in drug accumulation assays; also recorded: increase vinblastine accumulation in MDR MCF7; also recorded: activity superior to verapamil at concentrations between 0.5 μM and 10 μM | PKC activity in micellar PKC screening assay (PKC): marginal PKC inhibitory activity | phosphorylation of other phosphoproteins (other phosphoproteins): did not significantly alter phosphorylation of other phosphoproteins | time of maximal accumulation of 1b and 1c [4]: about 2 hours
